# Assay results as given in the supplement of paper PMC10307832.
# Assays:
# Assay in all cases: relative viability (nuclei count vs DMSO), 5 days (fraction); higher = more cells survive
# [1] = compound: O=c1[nH]cc(F)c(=O)[nH]1 [5-Fluorouracil] + C[C@@H](Oc1cc(-c2cnn(C3CCNCC3)c2)cnc1N)c1c(Cl)ccc(F)c1Cl [Crizotinib] (partner 1 µM)
# Outline: (§1)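 Relative viability equals treated-well nuclei counts divided by vehicle-well nuclei counts. Counts came from 4× images of lung cancer cell lines grown in 1536-well plates for 5 days after pin-tool dosing on the day after seeding. Dosing used one drug alone or a fixed anchor-drug dose plus five library-drug doses (not always all listed) in √10 steps, and values are medians of duplicate plates.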
# [2] = compound: CC1=C(CC(=O)O)c2cc(F)ccc2/C1=C\c1ccc([S+](C)[O-])cc1 [Sulindac] + O=C(CCCCCCC(=O)Nc1ccccc1)NO [Vorinostat] (partner 1 µM)
# Outline: as §1
# [3] = compound: O=c1[nH]cc(F)c(=O)[nH]1 [5-Fluorouracil] + COc1cccc2cc(-c3nc([C@H]4CC[C@H](C(=O)O)CC4)n4ncnc(N)c34)[nH]c12 [OSI-027] (partner 0.5 µM)
# Outline: as §1
Cell Line,relative viability ([1]; first compound 0.02 µM),relative viability ([1]; first compound 0.2 µM),relative viability ([1]; first compound 0.6325 µM),relative viability ([1]; first compound 2 µM),relative viability ([2]; first compound 0.08 µM),relative viability ([2]; first compound 0.253 µM),relative viability ([2]; first compound 0.8 µM),relative viability ([2]; first compound 2.53 µM),relative viability ([2]; first compound 8 µM),relative viability ([3]; first compound 0.02 µM),relative viability ([3]; first compound 0.2 µM),relative viability ([3]; first compound 0.6325 µM),relative viability ([3]; first compound 2 µM)
NCI-H1355,1.04,0.672,0.373,0.266,0.586,0.721,0.488,0.619,0.723,0.465,0.4,0.274,0.268
EKVX,0.842,–,0.181,–,0.636,0.635,–,0.652,0.771,–,–,0.148,0.134
NCI-H520,0.819,0.832,0.6,0.372,0.897,0.914,0.686,0.682,0.778,0.191,0.294,0.252,0.226
NCI-H1993,0.773,0.839,0.645,0.622,0.861,0.668,0.663,0.779,0.764,0.565,0.501,0.538,0.537
HCC-78,0.331,0.311,0.254,–,0.363,0.415,0.433,0.455,0.462,0.618,0.369,0.335,0.306
NCI-H2087,0.921,0.817,0.541,0.509,1.02,0.622,0.561,0.662,0.722,0.555,0.563,0.464,0.346
H3255,0.835,0.846,0.831,0.561,0.765,0.723,0.661,0.695,0.819,0.609,0.686,0.699,0.574
NCI-H2126,0.962,0.528,0.341,0.307,0.902,0.79,0.721,0.715,0.839,0.589,0.39,0.302,0.365
LC-2-ad,0.431,0.417,0.289,0.216,0.833,0.843,0.669,0.693,0.821,0.91,0.582,0.404,0.322
SK-LU-1,0.98,0.977,0.918,0.74,0.877,0.901,0.74,0.722,0.874,0.374,0.309,0.342,0.321
EBC-1,0.177,0.214,0.206,0.202,–,–,–,–,–,–,–,–,–
HCC-15,0.867,0.782,0.499,0.269,0.94,0.885,0.738,0.835,0.975,0.781,0.718,0.442,0.311
NCI-H1563,0.798,0.806,0.892,0.699,–,–,–,–,–,0.679,0.791,0.7,0.696
COR-L 105,0.852,0.806,0.647,0.453,0.95,0.982,0.856,0.77,0.967,0.649,0.899,0.66,0.443
NCI-H647,1.13,1.1,0.941,0.692,0.604,0.952,0.409,0.628,0.549,0.616,0.724,0.464,0.378
LU99A,0.579,0.521,0.521,0.384,0.499,0.465,0.454,0.428,0.551,0.262,0.272,0.311,0.223
NCI-H1703,0.83,0.564,0.378,0.479,–,–,–,–,–,–,–,–,–
NCI-H2170,1.28,1.1,0.608,0.468,0.937,0.741,0.69,0.833,0.924,0.681,0.594,0.459,0.37
NCI-H2342,–,–,–,–,0.791,0.774,0.619,0.669,0.791,0.698,0.731,0.735,0.638
LCLC-97TM1,0.349,0.552,0.244,0.171,1.01,0.86,0.453,0.729,0.94,0.392,0.531,0.557,0.379

Cell Line,relative viability ([1]; first compound 0.02 µM),relative viability ([1]; first compound 0.2 µM),relative viability ([1]; first compound 0.6325 µM),relative viability ([1]; first compound 2 µM),relative viability ([2]; first compound 0.08 µM),relative viability ([2]; first compound 0.253 µM),relative viability ([2]; first compound 0.8 µM),relative viability ([2]; first compound 2.53 µM),relative viability ([2]; first compound 8 µM),relative viability ([3]; first compound 0.02 µM),relative viability ([3]; first compound 0.2 µM),relative viability ([3]; first compound 0.6325 µM),relative viability ([3]; first compound 2 µM)
NCI-H1299,0.952,0.976,0.943,0.682,–,–,–,–,–,–,–,–,–
NCI-H322M,1.09,0.807,0.699,0.491,0.859,0.914,0.882,0.916,0.863,0.534,0.563,0.486,0.449
NCI-H1395,–,–,–,–,0.662,0.832,0.641,0.682,0.959,0.505,0.738,0.579,0.684
NCI-H2023,0.621,0.189,0.105,0.106,0.945,0.879,0.582,0.652,0.685,0.369,0.176,0.103,0.0879
NCI-H1651,0.825,0.838,0.452,0.38,0.623,0.57,0.486,0.577,0.593,0.832,0.628,0.507,0.475
HARA,1.4,1.04,1.06,1.08,0.474,0.675,0.425,0.512,0.461,0.475,0.737,0.559,0.308
NCI-H1944,0.993,0.92,0.392,0.193,0.604,0.62,0.506,0.574,0.571,0.48,0.423,0.296,0.188
NCI-H2405,0.871,0.954,0.797,0.579,1.08,1.04,0.923,0.971,1.28,0.633,0.661,0.701,0.604
201T,1.02,0.948,0.384,0.287,1.13,0.993,0.84,0.944,0.999,0.964,0.274,0.161,0.128
RERF-LC-KJ,0.867,0.841,0.849,0.665,0.687,0.823,0.597,0.78,0.734,0.609,0.553,0.543,0.471
Calu-6,0.872,0.859,0.693,0.427,–,–,–,–,–,–,–,–,–
NCI-H1734,0.709,0.742,0.533,0.37,0.844,0.826,0.664,0.78,1.05,0.58,0.655,0.513,0.398
NCI-H1650,0.859,0.801,0.505,0.367,0.586,0.54,0.605,0.486,0.557,0.515,0.496,0.383,0.349
PC-14,0.899,0.928,0.788,0.456,0.873,0.9,0.629,0.645,0.855,0.876,0.976,0.747,0.296
NCI-H1648,–,–,–,–,0.44,0.318,–,0.402,0.512,0.246,0.269,0.264,0.245
NCI-H1915,0.819,0.949,0.824,0.619,0.555,0.577,0.508,0.539,0.574,0.561,0.616,0.591,0.525
COR-L23,0.789,0.556,0.478,0.148,0.453,0.471,0.399,0.499,0.561,0.794,0.539,0.323,0.245
ChaGo-K-1,1.15,1.06,0.821,0.711,0.874,0.822,0.575,0.755,0.907,0.608,0.536,0.401,0.425
HOP-62,0.938,0.733,0.9,0.781,0.826,0.88,0.526,0.598,0.796,0.87,0.938,0.846,0.633
NCI-H1975,1,1.01,0.429,0.263,0.804,0.737,0.634,0.738,0.77,0.793,0.793,0.417,0.26

Cell Line,relative viability ([1]; first compound 0.02 µM),relative viability ([1]; first compound 0.2 µM),relative viability ([1]; first compound 0.6325 µM),relative viability ([1]; first compound 2 µM),relative viability ([2]; first compound 0.08 µM),relative viability ([2]; first compound 0.253 µM),relative viability ([2]; first compound 0.8 µM),relative viability ([2]; first compound 2.53 µM),relative viability ([2]; first compound 8 µM),relative viability ([3]; first compound 0.02 µM),relative viability ([3]; first compound 0.2 µM),relative viability ([3]; first compound 0.6325 µM),relative viability ([3]; first compound 2 µM)
BEN,1.02,0.719,0.615,0.718,0.576,0.57,0.539,0.614,0.617,0.303,0.312,0.315,0.326
NCI-H1437,–,0.257,0.2,0.155,0.951,0.872,0.749,0.837,0.876,0.495,0.23,0.205,0.188
EMC-BAC-2,0.871,0.788,0.764,0.767,0.559,0.405,0.367,0.426,0.528,0.363,0.407,0.376,0.361
SW 1573,0.824,0.899,0.778,0.463,0.777,0.95,0.585,0.683,1.11,0.548,0.73,0.633,0.327
NCI-H661,0.973,1.11,1.05,1.02,0.936,0.812,0.693,0.814,0.852,0.674,–,0.661,0.691
LXF-289,0.793,0.574,0.338,0.277,0.867,0.797,0.636,0.83,0.797,0.808,0.612,0.356,0.258
LOU-NH91,0.798,0.697,0.547,0.341,0.965,0.97,0.716,0.952,1.1,0.694,0.788,0.692,0.432
NCI-H2347,0.78,0.534,0.563,0.479,0.668,0.702,0.46,0.713,0.593,0.939,0.322,0.298,0.329
NCI-H2009,1.12,0.989,0.765,0.646,0.84,0.84,0.748,0.649,0.81,0.618,0.674,0.478,0.379
HCC-827,0.859,0.891,0.604,0.416,0.908,0.935,0.743,0.805,0.88,0.767,0.832,0.681,0.391
NCI-H1623,–,–,–,–,–,–,–,–,–,0.384,0.339,0.339,0.323
NCI-H727,1.07,1.05,0.891,0.703,1.35,1.21,0.998,1.18,1.24,0.639,0.651,0.647,0.574
NCI-H522,–,–,–,–,0.673,0.829,0.747,0.906,0.964,0.714,0.714,0.722,0.705
SW 900,–,–,–,–,0.553,0.47,–,–,0.578,0.505,0.501,0.44,0.423
NCI-H1793,–,–,–,–,0.726,0.716,–,0.637,0.68,0.283,0.369,0.303,0.207
IA-LM,1.03,0.401,0.254,0.289,1.07,1.21,–,0.913,0.981,–,–,–,–
A549,0.783,0.517,0.295,0.107,–,–,–,–,–,–,–,–,–
NCI-H1792,1.07,0.943,0.31,0.164,–,–,–,–,–,0.838,0.602,0.317,0.222
